# Test results from paper PMC4466645 (Oncotarget, 2015).
# Key:
# [1] = set-up: method as in PMID 23693152; details: cited from earlier work
# [2] = set-up: method as in PMID 23693152; details: cited from earlier work; remark: listed apart in the source
# Mer = Mer (Homo sapiens, UniProt Q12866); test: Microfluidic capillary electrophoresis (MCE) enzymatic assay, Mer; assay type: biochemical; details: ATP at Km
# Flt3 = Flt3 (Homo sapiens, UniProt P36888); test: Microfluidic capillary electrophoresis (MCE) enzymatic assay, Flt3; assay type: biochemical; details: ATP at Km
# Sequence of Flt3 (P36888 27-993): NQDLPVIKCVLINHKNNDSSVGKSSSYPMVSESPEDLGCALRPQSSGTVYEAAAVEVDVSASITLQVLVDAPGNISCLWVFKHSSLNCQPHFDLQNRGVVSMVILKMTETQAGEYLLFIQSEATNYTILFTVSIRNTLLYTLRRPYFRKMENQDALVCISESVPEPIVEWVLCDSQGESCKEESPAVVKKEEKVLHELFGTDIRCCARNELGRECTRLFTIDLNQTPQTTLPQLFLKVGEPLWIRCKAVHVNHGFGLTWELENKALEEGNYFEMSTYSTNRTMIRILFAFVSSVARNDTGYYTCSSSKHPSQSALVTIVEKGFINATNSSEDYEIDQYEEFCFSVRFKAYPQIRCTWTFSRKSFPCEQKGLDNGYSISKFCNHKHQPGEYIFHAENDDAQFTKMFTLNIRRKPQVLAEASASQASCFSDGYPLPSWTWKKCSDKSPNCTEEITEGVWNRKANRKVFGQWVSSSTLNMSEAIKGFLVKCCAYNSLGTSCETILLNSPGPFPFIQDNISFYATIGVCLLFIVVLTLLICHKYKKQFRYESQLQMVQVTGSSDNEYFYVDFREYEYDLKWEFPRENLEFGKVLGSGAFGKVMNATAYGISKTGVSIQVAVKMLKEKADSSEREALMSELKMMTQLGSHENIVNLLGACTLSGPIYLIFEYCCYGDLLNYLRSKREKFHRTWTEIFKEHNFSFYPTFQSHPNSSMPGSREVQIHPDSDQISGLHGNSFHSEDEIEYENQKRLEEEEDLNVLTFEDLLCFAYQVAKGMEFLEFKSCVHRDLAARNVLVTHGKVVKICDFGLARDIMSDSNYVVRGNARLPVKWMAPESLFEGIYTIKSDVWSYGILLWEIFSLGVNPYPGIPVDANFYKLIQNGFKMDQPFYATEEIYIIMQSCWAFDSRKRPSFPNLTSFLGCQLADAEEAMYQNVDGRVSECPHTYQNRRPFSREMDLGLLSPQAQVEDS
# [3] = test system: AML cell lines expressing Mer or Flt3 internal tandem duplication (ITD); test: Apoptosis by flow cytometry, AML cell lines expressing Mer or Flt3-ITD (all lines together)
# [4] = test system: Erk1/2, Akt and Stat6 phosphorylation; test: Downstream signaling immunoblot in Mer expressing cell lines; assay type: cell-based; details: two hour treatment
# Experimental: Whole cell lysates were prepared and proteins were resolved on Tris-Glycine SDS-PAGE gels (Invitrogen) and transferred onto nitrocellulose membranes. Membranes were blocked in tris-buffered saline with 0.1% Tween-20 containing 5% bovine serum albumin (when probing for Flt3) or 5% milk (when probing for all other molecules). For immunoprecipitation assays, cells were plated and treated as above, then treated with pervanadate for 10 minutes prior to cell lysis to stabilize the phosphorylation status. With the use of pervandate, it was not necessary to stimulate cells with exogenous Mer or Flt3 ligands (other than from fetal bovine serum) to detect phosphorylated Mer and Flt3 proteins. Anti-Mer antibody or anti-Flt3 and rec-Protein G-sepharose beads (Invitrogen) were added and lysates were incubated overnight on a rocking platform. Beads were washed and eluted proteins were resolved as above. Immunoprecipitate membranes were probed with an anti-phospho-Mer or anti-phospho-Flt3 antibody. After visualization, membranes were stripped and reprobed for total protein. The following antibodies were used according to manufacturer recommendations: anti-Mer (ab52968, AbCam); anti-phospho-Mer (Phosphosolutions Inc.); anti-Flt3 (sc-480), anti-Actin (sc-1616), anti-pan-Trk (sc-11), donkey-anti-goat IgG-HRP (sc-2020) (Santa Cruz Biotechnology); anti-phospho-Flt3 (#3461), anti-phospho-Stat6 (Tyr641, #9364), anti-Stat6, (#9362), anti-phospho-Stat5 (Tyr694, #9359), anti-Stat5 (#9358), anti-phospho-AKT (Ser473, #9271L), anti-AKT (#9272), anti-phospho-p44/42-MAPK (ERK1/2, Thr202/Tyr204, #9106), anti-p44/42-MAPK (#9102), anti-PARP (#9542), anti-Caspase-3 (#9665), anti-Tyro-3 (#5585) (Cell Signaling Technology); anti-Axl (AF154, R&D Systems); goat-anti-mouse IgG-HRP, goat-anti-rabbit IgG-HRP (BioRad). Proteins were visualized by horseradish peroxidase chemiluminescence detection (Perkin-Elmer).
# [5] = test system: Erk1/2, Akt and Stat5 phosphorylation; test: Downstream signaling immunoblot in Flt3-ITD cell lines; assay type: cell-based; details: 50 nM, two hour treatment
# Experimental: Whole cell lysates were prepared and proteins were resolved on Tris-Glycine SDS-PAGE gels (Invitrogen) and transferred onto nitrocellulose membranes. Membranes were blocked in tris-buffered saline with 0.1% Tween-20 containing 5% bovine serum albumin (when probing for Flt3) or 5% milk (when probing for all other molecules). For immunoprecipitation assays, cells were plated and treated as above, then treated with pervanadate for 10 minutes prior to cell lysis to stabilize the phosphorylation status. With the use of pervandate, it was not necessary to stimulate cells with exogenous Mer or Flt3 ligands (other than from fetal bovine serum) to detect phosphorylated Mer and Flt3 proteins. Anti-Mer antibody or anti-Flt3 and rec-Protein G-sepharose beads (Invitrogen) were added and lysates were incubated overnight on a rocking platform. Beads were washed and eluted proteins were resolved as above. Immunoprecipitate membranes were probed with an anti-phospho-Mer or anti-phospho-Flt3 antibody. After visualization, membranes were stripped and reprobed for total protein. […]
# Flt3-ITD cell lines = test: Apoptosis by flow cytometry, Flt3-ITD cell lines; assay type: cell-based; details: 72 hours, range over Flt3-ITD cell lines
# Experimental: To assess apoptosis, AML cell lines were cultured at 3 × 10^5 cells, and 1 × 10^6 AML patient blasts were co-cultured with 3.5 × 10^5 HS27 cells per condition in 24 well plates, and treated for 72 hours. Harvested cells were washed, resuspended in PBS containing 1 μM YO-PRO®-1 iodide (Invitrogen) and 1.5 μM propidium iodide (PI) (Invitrogen), and incubated on ice for 15–20 minutes. […] . Flow cytometry data were analyzed using Modfit Cell Cycle Analysis software (Verity Software House). In replating assays, cells were similarly plated and treated, then harvested cells were washed twice, and 1.5 × 10^4 viable cells/ml were cultured in cRPMI for six days. Six days after replating, viable myeloblast count was determined by trypan blue exclusion using a Cedex XS Analyzer (Roche).
# Kasumi-1 = test: Soft agar colony formation assay, Kasumi-1; assay type: cell-based; details: Kasumi-1, 100 nM, 21 days, normalized to vehicle
# Experimental: (§1) Cell lines were plated at a density of 1000 cells/ml in 0.35% agar over 0.5% agar base layer. […] Colonies were grown for 14 (NOMO-1, MV4;11, MOLM-13) or 21 days (Kasumi-1) prior to staining with 1 mg/ml nitrotetrazolium blue (Sigma-Aldrich). Treatment-containing medium was renewed twice weekly. […] Human mononuclear cells were isolated from umbilical cord blood samples using Ficoll-Paque PLUS (GE Healthcare Life Sciences). […] Cell line and patient sample colonies were counted using a GelCount colony counter (Oxford Optronix) and cord blood colonies were manually counted in a blinded, non-biased manner.
# NOMO-1 = test: Soft agar colony formation assay, NOMO-1; assay type: cell-based; details: NOMO-1, 100 nM, 14 days, normalized to vehicle
# Experimental: as §1
# MV4;11 = test: Soft agar colony formation assay, MV4;11; assay type: cell-based; details: MV4;11, 50 nM, 14 days, normalized to vehicle
# Experimental: as §1
# MOLM-13 = test: Soft agar colony formation assay, MOLM-13; assay type: cell-based; details: MOLM-13, 50 nM, 14 days, normalized to vehicle
# Experimental: as §1
# [6] = test system: primary AML patient samples; test: Apoptosis by flow cytometry in primary AML patient samples co-cultured with HS27 stromal cells; assay type: cell-based, human
# From the text: Cell lines MV4;11, NOMO-1, KG-1a, NB-4, and HEL were obtained from the German Collection of Microorganisms and Cell Culture (DSMZ); Kasumi-1 and U937 were obtained from the American Type Culture Collection (ATCC); MOLM-13 was a gift from Robert Arceci (Johns Hopkins); HS-27 was a gift from Kathrin Bernt (University of Colorado). AML cell lines were maintained in RPMI medium (HyClone) supplemented with 10% FBS and penicillin/streptomycin (cRPMI). Cell line identities were confirmed using short tandem repeat microsatellite loci analysis. HS-27 stromal cells were maintained in DMEM with 10% FBS and penicillin/streptomycin prior to co-culture. De-identified cord blood samples and primary patient myeloblasts apheresed from peripheral blood were obtained from the University of Colorado after written informed consent in accordance with the Declaration of Helsinki. Experiments conformed to regulatory standards as approved by the Colorado Multiple Institutional Review Board. AML patient samples were maintained as previously described, with HS-27 stromal co-culture for apoptosis and cell cycle experiments.
# To assess apoptosis, AML cell lines were cultured at 3 × 10^5 cells, and 1 × 10^6 AML patient blasts were co-cultured with 3.5 × 10^5 HS27 cells per condition in 24 well plates, and treated for 72 hours. Harvested cells were washed, resuspended in PBS containing 1 μM YO-PRO®-1 iodide (Invitrogen) and 1.5 μM propidium iodide (PI) (Invitrogen), and incubated on ice for 15–20 minutes. […] Flow cytometry data were analyzed using Modfit Cell Cycle Analysis software (Verity Software House). In replating assays, cells were similarly plated and treated, then harvested cells were washed twice, and 1.5 × 10^4 viable cells/ml were cultured in cRPMI for six days. Six days after replating, viable myeloblast count was determined by trypan blue exclusion using a Cedex XS Analyzer (Roche).
# [7] = test system: primary AML patient samples; test: Colony formation in methylcellulose, primary AML patient samples; assay type: cell-based, human
# Experimental: as §1
# [8] = test system: normal umbilical cord blood; test: Colony formation in methylcellulose, normal umbilical cord blood hematopoietic precursors; assay type: cell-based, human
# Experimental: as §1
# [9] = test system: AML cell lines expressing Mer or Flt3 internal tandem duplication (ITD); test: Colony formation, AML cell lines expressing Mer or Flt3-ITD (all lines together); assay type: cell-based; details: compared to treatment with vehicle
# Experimental: Cell lines were plated at a density of 1000 cells/ml in 0.35% agar over 0.5% agar base layer. […] Colonies were grown for 14 (NOMO-1, MV4;11, MOLM-13) or 21 days (Kasumi-1) prior to staining with 1 mg/ml nitrotetrazolium blue (Sigma-Aldrich). Treatment-containing medium was renewed twice weekly. […]. Human mononuclear cells were isolated from umbilical cord blood samples using Ficoll-Paque PLUS (GE Healthcare Life Sciences). […]. Cell line and patient sample colonies were counted using a GelCount colony counter (Oxford Optronix) and cord blood colonies were manually counted in a blinded, non-biased manner.
# [10] = Pharmacokinetics in a murine model; details: mouse, in vivo, po
# MV4;11 cell line [11] = test: Replating (rebound growth) assay, MV4;11; details: MV4;11, 50 nM for 72 hours then washed, replated at 1.5 × 10^4 viable cells/ml
# Experimental: (§2) To assess apoptosis, AML cell lines were cultured at 3 × 10^5 cells, and 1 × 10^6 AML patient blasts were co-cultured with 3.5 × 10^5 HS27 cells per condition in 24 well plates, and treated for 72 hours. […] Flow cytometry data were analyzed using Modfit Cell Cycle Analysis software (Verity Software House). In replating assays, cells were similarly plated and treated, then harvested cells were washed twice, and 1.5 × 10^4 viable cells/ml were cultured in cRPMI for six days. Six days after replating, viable myeloblast count was determined by trypan blue exclusion using a Cedex XS Analyzer (Roche).
# Kasumi-1 cell line [12] = test: Replating (rebound growth) assay, Kasumi-1; details: Kasumi-1, 100 nM for 72 hours then washed, replated at 1.5 × 10^4 viable cells/ml; vehicle 2.0 × 10^5
# Experimental: as §2
# [13] = test system: Mer-expressing cell lines; test: Apoptosis by flow cytometry, Mer-expressing cell lines; details: 72 hours, range over Mer-expressing cell lines
# Experimental: as §2
# TrkA [14] = molecular target: T1, TrkA (Homo sapiens, UniProt P04629); test: Protein kinase profiling panel (Carna Biosciences), TRKA; details: read-out: Percent Inhibition at 46 nM, TRKA
# T1 sequence (P04629 33-796): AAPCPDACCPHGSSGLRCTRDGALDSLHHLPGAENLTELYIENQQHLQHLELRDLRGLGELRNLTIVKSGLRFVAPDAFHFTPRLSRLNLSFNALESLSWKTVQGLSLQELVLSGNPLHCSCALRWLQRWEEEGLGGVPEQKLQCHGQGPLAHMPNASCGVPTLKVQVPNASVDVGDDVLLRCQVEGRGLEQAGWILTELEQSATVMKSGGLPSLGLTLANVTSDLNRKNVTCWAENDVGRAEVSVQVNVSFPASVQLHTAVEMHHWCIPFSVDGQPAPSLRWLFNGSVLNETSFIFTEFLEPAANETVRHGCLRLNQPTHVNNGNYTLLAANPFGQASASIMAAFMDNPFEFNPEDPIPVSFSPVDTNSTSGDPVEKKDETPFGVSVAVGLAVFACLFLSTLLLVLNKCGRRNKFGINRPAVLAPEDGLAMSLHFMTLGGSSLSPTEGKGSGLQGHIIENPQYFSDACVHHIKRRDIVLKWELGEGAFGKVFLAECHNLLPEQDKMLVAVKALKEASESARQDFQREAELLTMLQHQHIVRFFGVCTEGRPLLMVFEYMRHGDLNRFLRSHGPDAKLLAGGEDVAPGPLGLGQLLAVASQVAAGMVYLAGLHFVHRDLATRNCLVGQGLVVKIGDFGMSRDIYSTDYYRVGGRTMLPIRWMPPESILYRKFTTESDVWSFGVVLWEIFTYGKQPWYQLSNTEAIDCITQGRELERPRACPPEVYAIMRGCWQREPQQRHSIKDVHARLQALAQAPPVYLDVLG
# TRKB = TRKB (Homo sapiens, UniProt Q16620); test: Protein kinase profiling panel (Carna Biosciences), TRKB; details: read-out: Percent Inhibition at 46 nM, TRKB
# Sequence of TRKB (Q16620 32-822): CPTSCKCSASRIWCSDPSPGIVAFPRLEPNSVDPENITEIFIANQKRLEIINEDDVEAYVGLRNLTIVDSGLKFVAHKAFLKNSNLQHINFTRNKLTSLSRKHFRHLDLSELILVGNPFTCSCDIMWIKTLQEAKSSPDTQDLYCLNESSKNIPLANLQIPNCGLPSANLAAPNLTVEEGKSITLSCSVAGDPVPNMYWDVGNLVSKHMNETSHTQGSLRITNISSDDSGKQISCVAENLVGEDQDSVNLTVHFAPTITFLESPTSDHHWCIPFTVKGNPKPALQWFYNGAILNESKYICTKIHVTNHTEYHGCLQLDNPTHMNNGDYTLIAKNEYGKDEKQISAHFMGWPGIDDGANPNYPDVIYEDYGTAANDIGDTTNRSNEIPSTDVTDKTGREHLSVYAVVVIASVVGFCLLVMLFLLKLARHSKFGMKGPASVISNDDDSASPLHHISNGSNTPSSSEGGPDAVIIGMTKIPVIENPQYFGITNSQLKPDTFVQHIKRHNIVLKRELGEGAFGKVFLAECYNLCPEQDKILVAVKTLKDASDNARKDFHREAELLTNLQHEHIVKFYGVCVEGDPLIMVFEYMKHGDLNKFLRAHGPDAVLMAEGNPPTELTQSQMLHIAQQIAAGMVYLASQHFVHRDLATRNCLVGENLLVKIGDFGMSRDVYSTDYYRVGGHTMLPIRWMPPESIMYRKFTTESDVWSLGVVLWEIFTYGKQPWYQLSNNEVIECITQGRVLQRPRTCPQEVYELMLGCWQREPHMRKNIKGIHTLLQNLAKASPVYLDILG
# TRKC = TRKC (Homo sapiens, UniProt Q16288); test: Protein kinase profiling panel (Carna Biosciences), TRKC; details: read-out: Percent Inhibition at 46 nM, TRKC
# Sequence of TRKC (Q16288 32-839): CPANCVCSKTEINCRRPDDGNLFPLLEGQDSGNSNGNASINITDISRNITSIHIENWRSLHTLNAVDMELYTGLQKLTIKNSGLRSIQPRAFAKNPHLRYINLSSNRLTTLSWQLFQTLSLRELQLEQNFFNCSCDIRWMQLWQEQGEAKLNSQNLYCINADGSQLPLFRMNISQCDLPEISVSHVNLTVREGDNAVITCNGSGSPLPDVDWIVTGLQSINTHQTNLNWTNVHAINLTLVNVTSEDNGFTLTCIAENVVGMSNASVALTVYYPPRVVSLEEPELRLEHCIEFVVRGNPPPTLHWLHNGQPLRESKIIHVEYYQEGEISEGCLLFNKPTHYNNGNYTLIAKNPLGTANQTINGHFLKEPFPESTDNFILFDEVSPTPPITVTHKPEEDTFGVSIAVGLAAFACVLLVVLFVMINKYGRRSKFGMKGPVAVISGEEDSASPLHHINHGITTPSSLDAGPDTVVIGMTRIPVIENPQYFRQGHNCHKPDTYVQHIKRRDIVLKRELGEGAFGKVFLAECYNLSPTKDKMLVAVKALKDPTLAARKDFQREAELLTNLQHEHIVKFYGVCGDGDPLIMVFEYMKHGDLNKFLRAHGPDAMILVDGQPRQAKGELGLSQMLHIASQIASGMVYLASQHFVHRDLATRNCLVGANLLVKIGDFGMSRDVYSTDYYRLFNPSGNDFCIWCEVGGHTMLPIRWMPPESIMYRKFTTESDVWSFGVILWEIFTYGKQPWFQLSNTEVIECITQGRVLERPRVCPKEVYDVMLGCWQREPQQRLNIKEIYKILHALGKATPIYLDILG
# AML cell lines = test: Cell cycle analysis (propidium iodide, ModFit) in AML cell lines; details: significant at the 300 nM dose, 72 hours
# Experimental: as §2
# TrkA [15] = molecular target: T1, TrkA; test: Microfluidic capillary electrophoresis (MCE) enzymatic assay, TrkA
# Experimental: Microfluidic capillary electrophoresis (MCE) enzyme (40 μL, 4 nM Mer) and allowed to incubate for
# assay 10 min followed by addition of 32 μL of substrate mix
# polypropylene microplate with a final volume of 50μL in reads total, on an EZReader, using upstream voltage =
# 50mM Hepes, pH 7.4 containing 10mM MgCl2, 1.0 mM −2250V, downstream voltage = −500V and pressure =
# DTT, 0.01% Triton X-100, 0.1% bovine serum albumin −1.0 psi (sip time 0.2 sec, buffer 30 sec). The steady-state
# (BSA) (MCE Buffer), with 1.0 μM fluorescent substrate velocity was analyzed by linear regression of the peptide
# and ATP at Km for each enzyme (Supplemental Table 1). as percent-conversion/min, and a plot of nM compound
# 70 mM EDTA. Phosphorylated and unphosphorylated using GraphPad Prism (v5.01, GraphPad Software), Y =
# Reader software. velocity, X = inhibitor concentration).
# Morrison Tight-Binding Method (35).
# 2.0 nM Mer, and 1.0 μM peptide substrate.
# MV4;11 cell line [16] = test: Apoptosis by flow cytometry (YO-PRO-1 iodide / propidium iodide), MV4;11; details: MV4;11, 300 nM, 72 hours; vehicle 13 ± 3%
# Experimental: as §2
# MOLM-13 cell line = test: Apoptosis by flow cytometry (YO-PRO-1 iodide / propidium iodide), MOLM-13; details: MOLM-13, 300 nM, 72 hours; vehicle 8 ± 1%
# Experimental: as §2
# Kasumi-1 cell line [17] = test: Apoptosis by flow cytometry (YO-PRO-1 iodide / propidium iodide), Kasumi-1; details: Kasumi-1, 300 nM, 72 hour; vehicle 30 ± 7%
# Experimental: as §2
# Sequence of Mer (Q12866 21-999): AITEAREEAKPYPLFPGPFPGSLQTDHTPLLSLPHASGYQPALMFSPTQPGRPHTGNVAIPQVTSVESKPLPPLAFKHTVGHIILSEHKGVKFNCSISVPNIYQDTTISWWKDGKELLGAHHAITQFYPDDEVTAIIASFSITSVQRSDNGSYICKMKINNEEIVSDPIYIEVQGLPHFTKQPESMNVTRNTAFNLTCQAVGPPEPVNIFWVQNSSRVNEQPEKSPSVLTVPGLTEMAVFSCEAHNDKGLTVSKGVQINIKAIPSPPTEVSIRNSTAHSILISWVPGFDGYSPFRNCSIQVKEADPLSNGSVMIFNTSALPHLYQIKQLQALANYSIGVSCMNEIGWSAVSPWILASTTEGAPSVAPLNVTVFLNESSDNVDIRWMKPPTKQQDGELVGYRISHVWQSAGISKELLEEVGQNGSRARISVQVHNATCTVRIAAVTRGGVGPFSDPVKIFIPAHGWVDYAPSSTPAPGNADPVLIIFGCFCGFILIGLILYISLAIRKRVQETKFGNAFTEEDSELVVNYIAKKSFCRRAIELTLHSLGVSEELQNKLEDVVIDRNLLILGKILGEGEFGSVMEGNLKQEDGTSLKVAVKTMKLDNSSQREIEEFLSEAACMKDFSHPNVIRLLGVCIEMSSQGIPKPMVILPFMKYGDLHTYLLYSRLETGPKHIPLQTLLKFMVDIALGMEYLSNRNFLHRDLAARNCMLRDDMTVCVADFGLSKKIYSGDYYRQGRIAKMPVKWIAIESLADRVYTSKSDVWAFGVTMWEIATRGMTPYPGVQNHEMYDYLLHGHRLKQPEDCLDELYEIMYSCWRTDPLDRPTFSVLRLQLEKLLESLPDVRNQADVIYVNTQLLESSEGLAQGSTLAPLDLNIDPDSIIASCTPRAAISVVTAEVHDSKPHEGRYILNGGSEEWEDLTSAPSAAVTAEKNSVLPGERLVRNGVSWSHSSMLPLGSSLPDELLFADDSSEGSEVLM
smiles,measurement,setting,value
CCCCNc1ncc2c(-c3ccc(S(=O)(=O)N4CCOCC4)cc3)nn(C3CCC(O)CC3)c2n1 (stereo not shown) [UNC1062],Solubility (in words),[1],low solubility
same,In vivo pharmacokinetic properties (in words),[2],poor in vivo pharmacokinetic properties
CCCCN(C)c1ncc2c(-c3ccc(F)cc3)nn(C[C@H]3CC[C@H](N)CC3)c2n1 [UNC1653],IC50,Mer,560 nM
same,IC50,Flt3,220 nM
same,Induction of apoptosis (in words),"[3]; 72 hours, Mer-expressing or Flt3-ITD cell lines",did not induce apoptosis
CCCCNc1ncc2c(-c3ccc(S(=O)(=O)N4CCOCC4)cc3)cn([C@H]3CC[C@H](O)CC3)c2n1 [UNC1666],"Erk1/2, Akt and Stat6 phosphorylation",[4]; 50 nM,diminished phosphorylation
same,"Erk1/2, Akt and Stat6 phosphorylation",[4]; 100 nM,moderate decrease
same,"Erk1/2, Akt and Stat6 phosphorylation",[4]; 300 nM,more complete inhibition
same,"Erk1/2, Akt and Stat5 phosphorylation",[5],near complete ablation of phosphorylation
same,Cells apoptotic or dead,Flt3-ITD cell lines; 50 nM,54–67%
same,Cells apoptotic or dead,Flt3-ITD cell lines; 300 nM,90–98%
same,Reduction in colony formation,Kasumi-1,90 ± 6%
same,Reduction in colony formation,NOMO-1,71 ± 4%
same,Reduction in colonies,MV4;11,61 ± 22%
same,Reduction in colonies,MOLM-13,93 ± 6%
same,Anti-proliferative effects in patient samples (in words),"[6]; 50 nM, co-culture with stromal cells",near complete induction of apoptosis and growth inhibition
same,Induction of apoptosis (in words),"[6]; 72 hours, HS27 stromal co-culture",induce apoptosis in all patient samples
same,"Concentrations at which functional effects (decreased ability to evade apoptosis, decreased colony formation) occurred",[6]; AML patient samples that co-expressed Mer and Flt3,5 to 100 nM
same,Concentrations at which patient-derived myeloblasts are sensitive in methylcellulose cultures,[7]; as low as,5 to 50 nM
same,Colony formation (in words),"[7]; concentrations as low as 50 nM, in all but one sample, 10 days, methylcellulose",near complete abrogation of colony formation
same,Colony formation of normal cord blood hematopoietic precursors (in words),"[8]; 1 μM, methylcellulose, 14 days",trend towards decreased colony formation
same,Decrease in colony formation of normal cord blood hematopoietic precursors (in words),"[8]; 10 μM, methylcellulose, 14 days",statistically significant
same,Colony forming potential of hematopoietic progenitors in normal cord blood cultures (in words),[8]; doses as high as 1 μM,did not affect the colony forming potential
same,Colony number of normal cord blood hematopoietic precursors (in words),"[8]; doses up to 500 nM, n = 3, methylcellulose, 14 days",no significant reduction in colony number
same,Reduction of colony formation,[9],greater than 90%
same,bioavailability,[10],8%
same,Viable cell number at Day 6 after replating,MV4;11 cell line [11]; vehicle 10 × 10^5,2.0 × 10^5 viable cells/ml
same,Increase in viable cell number over six days after replating,MV4;11 cell line [11]; vehicle 67-fold,13 fold
same,Viable cell number at Day 6 after replating,Kasumi-1 cell line [12],0.3 × 10^5 cells/ml
same,"Induction of apoptosis, % of cells",[13]; 100 nM,50–67%
same,"Induction of apoptosis, % of cells",[13]; 300 nM,68–76%
same,inhibition at 0.046 µM,TrkA [14],101%
same,inhibition at 0.046 µM,TRKB,95%
same,inhibition at 0.046 µM,TRKC,98%
same,Cell cycle effect (in words),AML cell lines,accumulation of cells in G2M phase
same,IC50,TrkA [15],0.57 nM
same,Apoptosis (cells apoptotic or dead),MV4;11 cell line [16],90 ± 1%
same,Apoptosis (cells apoptotic or dead),MOLM-13 cell line,98 ± 2%
same,Cells apoptotic or dead,Kasumi-1 cell line [17],76 ± 8%
same,"Induction of apoptosis, % of cells","[3]; maximum over cell lines, compared to vehicle",up to 98%
